Laboratory results reported in US10874638B2, “Methods and compositions for modulating hormone levels” (priority 2014, dated 2020).

Experiments:
[1] = system: healthy young men; settings: cited from earlier work
[2] = system: orchidectomized male Sprague-Dawley rat; experiment: Orchidectomized mature male rat model
[3] = system: ovariectomized mature female rats; experiment: Ovariectomized mature female rat model; type: in vivo; settings: restoration mode
Description: Ovariectomized mature female rats are used to characterize primarily bone activity of the compositions provided herein or the individual SERM or SARM compounds. A sham group is used as control. The model can be run in either maintenance mode where the animals are dosed one day after the ovariectomy or restoration mode where the animals are dosed seven to eight weeks after the surgery. The rats are scanned by dual energy x-ray absorptiometry and sorted into experimental groups based upon femoral bone mineral content (BMC). Three dosages of testing compositions/compounds are administered orally once a day for 4, 8, or 12 weeks and estradiol and testosterone are administered subcutaneously to the reference groups. Animals received subcutaneous injections of fluorochrome markers for bone histomorphometric analysis. Alizarian Red S was prepared as a 3% solution and given at a dose of 30 mg/kg at the time of the baseline scan. Calcein was administered 10 days and 3 days prior to necropsy.
Approximately 24 hours after the last dose, blood is collected and the gastrocnemius muscle, plantaris muscle, uterus, clitoral glands, clitoris and inguinal fat pads were isolated, blotted and weighed individually. The left femur and lumbar vertebra L5 are wrapped in saline-soaked gauze and stored at −20° C. for biochemical analysis. The right femur and lumbar vertebrae L3-L4 are collected and stored in 70% ethanol for histomorphometry. The right tibia is collected in formalin for histological analysis. The left tibia is collected on dry ice and stored at −20° C. for measurement of alkaline phosphatase activity.
BMC, bone mineral density (BMD) and bone length are measured by pDEXA on an entire femur. The coefficient of variation for repeated measurement of the isolated femur is less than 0.4% for the BMC and the BMD measurements. […] Serum osteocalcin, a marker for bone turnover, and alkaline phosphatase derived from the tibial periosteum are also measured. Whole femurs are collected for biomechanical analysis and thawed at room temperature prior to testing. Peak load and peak displacement are measured directly from the load cell and the crosshead, respectively. Stiffness is calculated from the slope of the linear region of the load/displacement curve. Lumbar vertebra L5 is also measured in the mechanical testing for bone strength.
Bone histomorphometry is performed to indicate growth of the new bone during the study. The section from the lumbar vertebral bodies is used for histomorphometric indices of cancellous bone, while the sections of the femur mid-shafts are used for histomorphometric indices of cortical bone.
Body weight, gastrocnemius weight and plantaris weight changes are measured indicating anabolic activity of the testing compositions/compounds on skeletal muscle. Inguinal fat pad weight is used as a representative fat pad to assess the effects of the testing compounds on body fat. Clitoral gland and clitoral weights are measured to assess the virilizing effect of drugs.
In the maintenance node of this model, (5R,6S)-6-phenyl-5-[4-(2-pyrrolidin-1-ylethoxy)phenyl]-5,6,7,8-tetrahydronaphthalen-2-ol (Compound 1) was dosed daily at 0 (sham), 0 (OVX), 0.01, 0.05, and 0.25 mg/kg for 8 weeks and 17α-ethynylestradiol was dosed at 0.03 mg/kg/day. […] Micro-computerized tomography (uCT) measured the density and connectivity of the trabecular bone in the femur and pQCT measured at the distal femur.
In the restoration mode of this osteopenic female rat model, 4-(2(R)-(1(S)-hydroxyl-2,2,2-trifluoroethyl)-pyrrolidinyl)-2-trifluoromethylbenzonitrile (Compound 2, Formula I, R^1═CF3, R^2═R^3═H) was dosed at 0 (sham), 0 (OVX), 0.03, 0.3, and 3 mg/kg orally for 12 weeks. […] Compound 2 suppressed cancellous bone turnover while increasing trabecular bone volume and increasing bone mineral density at the lumbar spine.
In the same experiment of Compound 2, another SARM compound, ostarine, was dosed at 0.03, 0.3, and 3 mg/kg/day orally for 12 weeks.

[4] = system: intact cynomolgus male and female monkeys; experiment: Intact cynomolgus monkey model; type: in vivo; settings: for serum cholesterol decrease, of the corresponding Day −3 values: males and females
Description: Intact cynomolgus male and female monkeys are used to assess of the effects of the compositions provided herein or the individual SERM or SARM compounds on hypothalamic-pituitary-gonadal axis and lipid profile. All animals are dosed via oral or nasol gavage once daily for consecutive days with either vehicle or testing articles of different doses. The first day of dosing is designated Day 1 for all animals. Blood samples are collected for analysis of LH, FSH, T, Estrodiol, total cholesterol, triglycerides, cortisol, and coagulation parameters included prothrombin time (PT) and activated partial thromboplastin time on Days −3 and end of the study.
In this model, Compound 2 was dosed at 0, 5, 50, 150, and 450 mg/kg/day for 14 days. […] In a separate study, the compound was dosed at 0, 3, 10, 30, 120, and 500 mg/kg/day for 30 days. […] Serum testosterone was suppressed in males as indicated by lower 75th, 50th, and 25th percentile values in samples from treated monkeys than vehicle controls.
In this model, Compound 1 was dosed at 0, 1, 5, and 15 mg/kg/day for 3 months.

[5] = 0.03, 0.3, 3 mg/kg orally for 12 weeks
[6] = females, 3 to 500 mg/kg/day for 30 days

N#Cc1ccc(N2CCC[C@@H]2[C@H](O)C(F)(F)F)cc1C(F)(F)F [Compound 2, 4-(2(R)-(1(S)-hydroxyl-2,2,2-trifluoroethyl)-pyrrolidinyl)-2-trifluoromethylbenzonitrile]
safety and pharmacokinetic profiles [1]: favorable safety and pharmacokinetic profiles
exposure versus dose ([2]; 0.03 to 100 mg/kg/day for 14 days, rat): dose proportional exposure
efficacy (relative to sham) in sex accessory and sebaceous glands ([2]; at doses that maintained levator ani weights at sham equivalent levels): lower efficacy
serum LH ([2]; at high doses): suppressed serum LH below sham-equivalent levels
AUC24 ([2]; at the dose of 2 mg/kg/day, rat): 0.2
activity in musculoskeletal endpoints ([2]; restoration mode, 0.03 to 100 mg/kg/day for 14 days): positive activity
dose reducing the elevated LH levels in castrate rats ([2]; restoration mode, 14 days): ≥ 10 mg/kg/day
dose that maintained levator ani weight at sham-equivalent levels ([2]; restoration mode, 14 days): 2 mg/kg/day
tissue selectivity toward the muscle endpoint ([2]; restoration mode, 14 days): tissue selective activity
activity on the clitoral gland, clitoris or uterus relative to testosterone ([3]; 0.3 mg/kg/day dose): reduced activity
efficacy on muscle and bone compared with testosterone ([3]; 0.3 mg/kg/day dose): more efficacious
bone mineral density at the lumbar spine [3, 5]: increasing
cancellous bone turnover [3, 5]: suppressed
cortical bone mass, density, strength, stiffness and periosteal bone formation rates [3, 5]: significantly increased
gastrocnemius muscle weight, plantaris muscle weight and body weight [3, 5]: increased
inguinal fat pad weight [3, 5]: without affecting
trabecular bone volume [3, 5]: increasing
triglycerides ([4]; Day 14, 5 to 450 mg/kg/day for 14 days): without dose dependent changes
serum cholesterol decrease, of the corresponding Day −3 values ([4]; Day 14, 5 mg/kg/day for 14 days): 71%
serum cholesterol decrease, of the corresponding Day −3 values ([4]; Day 14, 50 mg/kg/day for 14 days): 81%
serum cholesterol decrease, of the corresponding Day −3 values ([4]; Day 14, 150 mg/kg/day for 14 days): 79%
serum cholesterol decrease, of the corresponding Day −3 values ([4]; Day 14, 450 mg/kg/day for 14 days): 84%
effect on the hypothalamic-pituitary-gonadal axis ([4]; female and male monkeys, 3 to 500 mg/kg/day for 30 days): suppressive effect
serum FSH [4, 6]: significantly suppressed
serum estradiol [4, 6]: significantly suppressed
serum testosterone ([4]; males, lower 75th, 50th, 25th percentile values than vehicle controls, 30 days): suppressed
serum FSH ([4]; sentence follows the male results, 30 days): not significantly altered
